Experimental data as given in patent publication US11091517B2, “Peptide derivative and pharmaceutical composition containing same” (TOKUSHIMA UNIVERSITY, priority 2017, dated 2021).
Like-named read-outs stand apart in the source and are kept apart here. *1 amine or outer side, *2 acyl side, *3 side chain or, on linkers, in order; H or OH if unused. Where a SMILES comes first, the peptide text is derived from it. Bridges are numbered along the chain shown (N, C = ends). NH(CH2)4NH = C(CCN[*:2])CN[*:1]

How the values were obtained:
[1] = system: BIG3 phosphorylation; assay: BIG3 phosphorylation (Ser305, Ser1208) in SK-BR-3 and KPL-4 cells, immunoblot; assay type: cell-based, human; details: SK-BR-3 and KPL-4, 30 minutes; 10 μM H-89, 100 μg/mL trastuzumab, 10 nM lapatinib
[2] = system: PP1Cα; assay: PP1Cα activity of BIG3 immunoprecipitates from SK-BR-3 cells; assay type: cell-based, human; details: SK-BR-3, 24 hours; 10 μM H-89, 100 μg/mL trastuzumab, 10 nM lapatinib
[3] = target: T1, PKA (Homo sapiens, UniProt P17612); assay: PKA activity of BIG3 immunoprecipitates from SK-BR-3 cells; assay type: cell-based
T1 construct: endogenous in cells; host or cells: SK-BR-3

[4] = system: MCF-7 cells; assay type: cell-based, human; details: for inhibition rate on estrogen-dependent cell growth: 96 h
[5] = system: SK-BR-3; assay type: cell-based, human; details: 96 h
Method: (§1) For the single stERAP and double stERAP #46, peptides were added at a total of eleven concentrations prepared by three-fold serial dilution starting from 20 μM. For the double stERAP #45, peptides were added at a total of eight concentrations prepared by two-fold serial dilation starting from 50 μM. The number of viable cells were measured 96 hours after the peptide addition, and relative values thereof were calculated based on the negative control cells without peptide addition and plotted. Experiments using double stERAP #45 on the SW982 cell line were not carried out.
(§2) MDA-MB-231 cells and SW982 cells were cultured using Leibovitz's L-15 medium (Thermo Fisher Scientific) at 37° C. without CO2 concentration control. All media were used by supplementing 10% FBS (Thermo Fisher Scientific) and a 1% antibiotic/antimycotic solution (Wako Pure Chemical, Osaka, Japan).
(§3) SK-BR-3 cells, BT-20 cells, and MDA-MB-231 cells were seeded into 48-well plates at 1×10^4 cells/200 μL in each well, and SW982 cells were seeded into 48-well plates at 0.5×10^4 cells/200 μL in each well. 48 hours later, the medium in each well was exchanged to a medium supplemented with a peptide (single stERAP and double stERAP #46: three-fold serial dilution from 20 μM, double stERAP #45: two-fold serial dilution starting from 50 μM), and after culturing for another 96 hours, the level of cell growth was measured using the Cell Counting Kit-8 (Dojindo, Kumamoto, Japan). Data were obtained from three independent experiments, a graph (mean±standard deviation) was produced using a graphing and data analyzing software SigmaPlot (Systat Software, San Jose, Calif., USA), and the 50% inhibition concentration (IC50) of the peptide against cell growth was calculated.

[6] = system: MDA-MB-231; assay type: cell-based, human; details: 96 h
Method: as §1, §2, §3

[7] = system: BT-20; assay type: cell-based, human; details: 96 h
Method: as §1, §2, §3

[8] = target: T2, chymotrypsin (Bos taurus, UniProt P00766); assay: Chymotrypsin resistance (HPLC); assay type: in vitro ADME; details: 1 μg chymotrypsin, 5 μg peptide, 37° C., 24 hours
T2 construct: purchased Sigma C7761
Method: The chromatograms for double stapled ERAP No. 45 (A) and double stapled ERAP No. 46 (B), when a double stapled ERAP was reacted with chymotrypsin at 37° C. for 24 hours, are shown. In the experiment, the double stapled ERAP-chymotrypsin reaction solutions were subjected to high performance liquid chromatography (reverse-phase column, 0.3 mL/min flow rate, gradient elution (solution A: 0.1% trifluoroacetic acid; solution B: 0.1% trifluoroacetic acid/acetonitrile, A/B=90/10 (0-20 min) to 40/60 (20-80 min))), and detection was carried out by UV at 210 nm.
Chymotrypsin resistance was analyzed by adding 1 μg of chymotrypsin (#C7761, Sigma) and 5 μg of double stapled ERAP in a buffer (50 mM Tris-HCl; pH 8.0, 10 mM CaCl2), allowing this to react at 37° C. for 24 hours, and then subjecting the whole amount to high-performance liquid chromatography (HPLC). For the HPLC, a reverse-phase column (Inertsil Peptides C18 250×3.0 mm I.D.; GL Science, Tokyo, Japan) was used, gradient elution was performed using Solution A (0.1% trifluoroacetic acid) and Solution B (0.1% trifluoroacetic acid/acetonitrile) (A/B=90/10 (0-20 min), 90/10-40/60 (20-80 min)) at a flow rate of 0.3 mL/min, and a chromatogram for each double stapled ERAP was obtained by UV detection at 210 nm.

[9] = target: T3, BIG3-PHB2 interaction (Homo sapiens, UniProt Q99623); assay: Inhibition of BIG3-PHB2 interaction in MCF-7 cells (immunoprecipitation, Western blotting); assay type: cell-based; details: MCF7, 96 hours, 10 nM estrogen, read-out: inhibition rate of BIG3-PHB2 binding
T3 construct: endogenous in cells; host or cells: MCF-7
T3 sequence (Q99623 2-299 limits assumed): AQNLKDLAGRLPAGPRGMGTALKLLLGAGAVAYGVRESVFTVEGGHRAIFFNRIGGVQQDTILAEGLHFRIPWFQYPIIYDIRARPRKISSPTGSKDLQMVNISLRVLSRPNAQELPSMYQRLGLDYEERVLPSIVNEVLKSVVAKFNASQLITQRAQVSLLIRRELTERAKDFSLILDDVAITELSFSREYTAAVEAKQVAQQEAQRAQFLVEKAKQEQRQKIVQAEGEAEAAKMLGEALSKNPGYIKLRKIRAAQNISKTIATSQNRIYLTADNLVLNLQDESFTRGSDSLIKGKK
Method: (A, B) Inhibitory effect of double stapled ERAP No. 46 on BIG3-PHB2 interaction in MCF-7 cells was evaluated by Western blotting. […] Then, the cells were lysed, immunoprecipitation was performed using an anti-BIG3 antibody, and immunoblot analyses were performed using the antibodies indicated in the drawing. The binding inhibition rates are expressed as proportions to the band area for PHB2 in untreated cells which is set as 100.
For immunoblot analyses, after performing SDS-PAGE, the membranes blotted with proteins were blocked with 4% BlockAce solution (Dainippon Pharmaceutical, Osaka, Japan) for 3 hours and then incubated to react for 12 hours with antibodies against BIG3 (1:1,000) and PHB2 (1:1,000) (Abcam, Cambridge, UK). After allowing interaction with HRP-labeled secondary antibodies (anti-rat IgG-HRP for BIG3, 1:5,000; and anti-rabbit IgG-HRP for PHB2, 1:1,000) (Santa Cruz Biotechnology, Dallas, Tex., USA) for 1 hour, the blots were developed with the Enhanced Chemiluminescence (ECL) system (GE Healthcare, Buckinghamshire, UK) and scanned using the Image Reader LAS-3000 mini (Fujifilm, Tokyo, Japan). […]

[10] = system: SW982; assay type: cell-based, human; details: 96 h
Method: as §1, §2, §3

[11] = system: PKCα; assay: PKCα activity of PKCα immunoprecipitates from SK-BR-3 cells; assay type: cell-based, human; details: SK-BR-3, 10 nM lapatinib in the presence of stERAP, 24 hours
Method: (A) Immunoblots are shown which indicate that PHB2 (Ser39) is phosphorylated in a PKCα-dependent manner in a HER2-positive breast cancer cell line. SK-BR-3 cells in which PKCα expression was suppressed by the siRNA method were treated for 24 hours with 1 μM stERAP, then cell lysate thereof was subjected to immunoprecipitation using an anti-PHB2 antibody, and immunoblot analyses were performed using the antibodies shown in the drawing. (B) PKCα activity by EGFR signaling in SK-BR-3 cells is shown. SK-BR-3 cells were treated for 24 hours with 1 μM stERAP, and with 10 nM lapatinib in the presence of stERAP, cell lysates thereof were subjected to immunoprecipitation using an anti-PKCα antibody, and PKCα activities were calculated using CREBtide as a substrate. Data represent the mean±standard error of three independent experiments.
The activities of protein kinase A (PKA) and protein kinase C alpha (PKCα) were measured by reacting the immunoprecipitates of BIG3 and PKCα with a synthetic substrate CREBtide ([…]) and 0.5 mM ATP in a kinase buffer (25 mM Hepes, pH 7.2, 25 mM MgCl2, 5 mM EDTA, 5 mM EGTA, 0.25 mM DTT) at 30° C. for 30 minutes, and by using an ADP-Glo kinase assay Kit (Promega, Fitchburg, Wis., USA).

[12] = system: PHB2 (Ser39) phosphorylation; assay: PHB2 (Ser39) phosphorylation in SK-BR-3 cells, immunoblot; assay type: cell-based, human; details: SK-BR-3, presence of 1 μM stERAP; 100 μg/mL trastuzumab, 10 nM lapatinib
[13] = system: HER2-HER3 interaction; assay: HER2-HER3 interaction, immunoprecipitation with anti-HER2 antibody; assay type: cell-based, human; details: SK-BR-3, 2 μM AZ3146 and 1 μM stERAP, 24 hours
[14] = system: HER2-Shc interaction; assay: HER2-Shc interaction, immunoprecipitation with anti-HER2 antibody; assay type: cell-based, human; details: SK-BR-3, 2 μM AZ3146 and 1 μM stERAP, 24 hours

Row | IC50 [4] [nM] | IC50 [5] [nM] | IC50 [6] [nM] | IC50 [7] [nM] | degradation by chymotrypsin treatment (chromatogram) [8] | Compound | suppression of BIG3 phosphorylation (Ser305 and Ser1208) [1] | inhibition rate for PP1Cα activity [2] | other results
1 |  |  |  |  |  | O=S(=O)(NCCNC/C=C/c1ccc(Br)cc1)c1cccc2cnccc12 [H-89] | nearly completely suppressed | 96% | inhibition rate for PKA activity ([3]; SK-BR-3, 24 hours, 10 μM H-89, 100 μg/mL trastuzumab, 10 nM lapatinib): 100%
2 | 2320 | 2800 | 23700 | 8600 | several degradation products | CSCC[C@H](NC(=O)[C@H](CCC(N)=O)NC(C)=O)C(=O)N[C@H]1CCC(=O)NCCCCNC(=O)CC[C@@H](C(=O)N[C@H]2CCC(=O)NCCCCNC(=O)CC[C@@H](C(=O)N[C@@H](CCCNC(=N)N)C(N)=O)NC(=O)[C@H](CCCNC(=N)N)NC(=O)[C@H](CC(C)C)NC(=O)[C@H](CCC(N)=O)NC2=O)NC(=O)[C@H](CC(C)C)NC(=O)[C@H](CC(=O)O)NC(=O)[C@H](CO)NC1=O [double stapled ERAP No. 45] (Ac-QMESDLEEQLRER-NH2; linker 3-7, 8-12 via NH(CH2)4NH) |  |  | inhibition rate on estrogen-dependent cell growth ([4]; 1 μM): 21%
3 | 430 | 20 | 143 | 74 | hardly showed its degradation | CSCC[C@H](NC(=O)[C@H](CCC(N)=O)NC(C)=O)C(=O)N[C@H]1CCC(=O)NCCCCNC(=O)CC[C@@H](C(=O)N[C@@H](CC(C)C)C(=O)N[C@@H](CCC(N)=O)C(=O)N[C@H]2CCC(=O)NCCCCNC(=O)CC[C@@H](C(N)=O)NC(=O)[C@H](CCCNC(=N)N)NC(=O)[C@H](CCC(N)=O)NC(=O)[C@H](CCCNC(=N)N)NC2=O)NC(=O)[C@H](CC(C)C)NC(=O)[C@H](CC(=O)O)NC(=O)[C@H](CO)NC1=O [double stapled ERAP No. 46] (Ac-QMESDLELQERQRE-NH2; linker 3-7, 10-14 via NH(CH2)4NH) |  |  | inhibition rate on estrogen-dependent cell growth ([4]; 10 μM): 91%; inhibition at 1 µM ([9]; 1 μM): 60%; inhibition at 10 µM ([9]; 10 μM): 95%; IC50 [10]: 26 nM
4 |  |  |  |  |  | CS(=O)(=O)CCNCc1ccc(-c2ccc3ncnc(Nc4ccc(OCc5cccc(F)c5)c(Cl)c4)c3c2)o1 [lapatinib] | not so involved in the suppression of BIG3 phosphorylation | about 15% | PKCα activity inhibition [11]: approximately 80%; decrease of PHB2 (Ser39) phosphorylation [12]: nearly completely suppressed; inhibition at 0.01 µM ([3]; SK-BR-3, read-out: inhibition rate for PKA activity): ~15%
5 |  |  |  |  |  | AZ3146 |  |  | effect on stERAP inhibition of HER2-HER3 interaction [13]: nearly completely canceled the inhibitory effects; effect on stERAP inhibition of HER2-Shc interaction [14]: nearly completely canceled the inhibitory effects
